From US8058243B2, “Method for treating a brain cancer with ifenprodil” (HSC Research and Development Limited Partnership, priority 2006, dated 2011)
Counter-ions that a name gives are not always drawn. Like-named read-outs stand apart in the source and are kept apart here.

Tested on: murine neural precursor cells (neurosphere cultures)
Test: HTS of LOPAC library against secondary neurosphere cultures, MTT proliferation assay at 3 μM, day 7 (z score, P value)
Assay type: cell-based, mouse
[1] = LOPAC primary screen, neurosphere MTT proliferation, 3 μM, day 7
[2] = yes/no: significantly inhibited neurosphere proliferation (P<0.01) in the primary screen
[3] = LOPAC library screen at 3 μM, secondary neurosphere cultures, MTT
[4] = yes = significantly inhibited neurosphere proliferation (P<0.01) in the primary screen
[5] = LOPAC library screen, 3 μM, MTT, secondary neurosphere cultures, day 7
[6] = LOPAC library screen, 3 μM, MTT, neurosphere cultures
[7] = yes/no: significantly inhibited neurosphere proliferation (P<0.01) in primary screen
[8] = LOPAC library screen at 3 μM, MTT, secondary neurosphere cultures, screened in singlets
[9] = yes/no: significantly inhibited neurosphere proliferation in the primary screen
[10] = yes/no: significantly inhibited neurosphere proliferation in primary screen

Structure (SMILES): N[C@@H](Cc1ccc(N(CCCl)CCCl)cc1)C(=O)O [Melphalan]
- Z Score: −3.907
- Z score [1]: −3.907
- Activity [2]: yes

Structure (SMILES): CC12CC3CC(C)(C1)CC(N)(C3)C2 [Memantine hydrochloride]
- Z Score [3]: −0.141
- Z score [1]: −0.141
- Activity [4]: no

Structure (SMILES): CN1C[C@@H](NS(=O)(=O)N(C)C)C[C@@H]2c3cccc4c3c(cn4C)C[C@H]21 [Mesulergine hydrochloride]
- Z Score [5]: −2.16
- Z score [1]: −2.160
- Activity [2]: no

Structure (SMILES): CN1C[C@H](CNC(=O)OCc2ccccc2)C[C@@H]2c3cccc4c3c(cn4C)C[C@H]21 [Metergoline (39), Metergoline, reference compound]
- Z Score [5]: −4.342
- Z score [1]: −4.342
- Activity [2]: yes

Structure (SMILES): CN(C)CCN(Cc1cccs1)c1ccccn1 [Methapyrilene hydrochloride]
- Z Score [6]: 0.6276
- Z score [1]: 0.628

Structure (SMILES): CSc1ccc2c(c1)C(N1CCN(C)CC1)Cc1ccccc1S2 (stereo not drawn) [Methiothepin (38), Methiothepin, reference compound]
- Z Score (168 h, 3 µM): 1.868
- Z score (168 h, 3 µM): 1.868
- Activity [2]: no

Structure (SMILES): COc1ccccc1CNCCCCCCNCCCCCCCCNCCCCCCNCc1ccccc1OC [Methoctramine (31), Methoctramine, reference compound]
- Z Score (168 h, 3 µM): −7.012
- Z score (168 h, 3 µM): −7.012
- Activity [2]: yes

Structure (SMILES): CN(Cc1cnc2nc(N)nc(N)c2n1)c1ccc(C(=O)N[C@@H](CCC(=O)O)C(=O)O)cc1 [Methotrexate]
- Z Score [5]: −10.2
- Z score [1]: −10.203
- Activity [2]: yes

Structure (SMILES): COc1ccc(OC)c(C(O)C(C)N)c1 (stereo not drawn) [Methoxamine hydrochloride]
- Z Score [5]: −3.255
- Z score [1]: −3.255
- Activity [2]: yes

Structure (SMILES): CCc1c(C(=O)OC)ncc2[nH]c3cc(OC)c(OC)cc3c12 [Methyl 6,7-dimethoxy-4-ethyl-beta-carboline-3-carboxylate]
- Z Score: −1.326
- Z score [1]: −1.326
- Activity [7]: no

Structure (SMILES): COC(=O)c1cc2c(cn1)[nH]c1ccccc12 [Methyl beta-carboline-3-carboxylate]
- Z Score: 0.06023
- Z score [1]: 0.060
- Activity [7]: no

Structure (SMILES): CNC(=O)OCC[N+](C)(C)C.[Cl-] [Methylcarbamylcholine chloride]
- Z Score: 1.913
- Z score [1]: 1.913
- Activity [4]: no

Structure (SMILES): CC[C@@H](CO)NC(=O)[C@@H]1C=C2c3cccc4[nH]cc(c34)C[C@H]2N(C)C1 [Methylergonovine maleate]
- Z Score: −0.7846
- Z score [1]: −0.785
- Activity [4]: no

Structure (SMILES): CC[C@@H](CO)NC(=O)[C@@H]1C=C2c3cccc4c3c(cn4C)C[C@H]2N(C)C1 [Methysergide maleate]
- Z Score: −0.01983
- Z score [1]: −0.020
- Activity [4]: no

Structure (SMILES): CCN(CC)CCNC(=O)c1cc(Cl)c(N)cc1OC [Metoclopramide hydrochloride]
- Z Score (168 h, 3 µM): −1.992
- Z score (168 h, 3 µM): −1.992
- Activity [2]: no

Structure (SMILES): Cc1ccccc1N1C(=O)c2cc(S(N)(=O)=O)c(Cl)cc2NC1C (stereo not drawn) [Metolazone]
- Z Score [5]: −8.113
- Z score [1]: −8.113
- Activity [4]: yes

Structure (SMILES): Cc1ccccc1/C=C/C1=NCCN1 [Metrazoline oxalate]
- Z Score (168 h, 3 µM): 0.1073
- Z score (168 h, 3 µM): 0.107
- Activity [4]: no

Structure (SMILES): Cc1ccccc1CNc1ncnc2c1ncn2[C@@H]1O[C@H](CO)[C@@H](O)[C@H]1O [Metrifudil]
- Z Score [3]: −0.2123
- Z score [1]: −0.212
- Activity [4]: no

Structure (SMILES): CC[C@H](C)C(=O)O[C@H]1CCC=C2C=C[C@H](C)[C@H](CC[C@@H]3C[C@@H](O)CC(=O)O3)[C@H]21 [Mevastatin]
- Z Score [5]: −6.278
- Z score [1]: −6.278
- Activity [4]: yes

Structure (SMILES): Cc1cccc(C)c1OCC(C)N.Cl (stereo not drawn) [Mexiletene hydrochloride]
- Z Score: −1.259
- Z score [1]: −1.259
- Activity [4]: no

Structure (SMILES): CN1CCN2c3ccccc3Cc3ccccc3C2C1 (stereo not drawn) [Mianserin hydrochloride]
- Activity: no
- Z Score [6]: 0.9746
- Z score [1]: 0.975

Structure (SMILES): COCC(=O)O[C@]1(CCN(C)CCCc2nc3ccccc3[nH]2)CCc2cc(F)ccc2[C@@H]1C(C)C [Mibefradil dihydrochloride]
- Z Score [6]: −0.02693
- Z score [1]: −0.027
- Activity [4]: no

Structure (SMILES): CC#C[C@]1(O)CC[C@H]2[C@@H]3CCC4=CC(=O)CCC4=C3[C@@H](c3ccc(N(C)C)cc3)C[C@@]21C [Mifepristone]
- Z Score (168 h, 3 µM): −1.97
- Z score (168 h, 3 µM): −1.970
- Activity [4]: no

Structure (SMILES): Cc1[nH]c(=O)c(C#N)cc1-c1ccncc1 [Milrinone]
- Z Score [6]: 0.05506
- Z score [1]: 0.055
- Activity [4]: no

Structure (SMILES): CN(C)c1ccc(O)c2c1C[C@H]1C[C@H]3[C@H](N(C)C)C(O)=C(C(N)=O)C(=O)[C@@]3(O)C(O)=C1C2=O [Minocycline hydrochloride]
- Z Score [6]: 0.4419
- Z score [1]: 0.442

Structure (SMILES): O=C1c2c(O)ccc(O)c2C(=O)c2c(NCCNCCO)ccc(NCCNCCO)c21 [Mitoxantrone]
- Z Score [5]: −10.21
- Z score [1]: −10.205
- Activity [4]: yes

Structure (SMILES): NC(=O)c1ncn([C@@H]2O[C@H](CO)[C@@H](O)[C@H]2O)c1O [Mizorbine]
- Z score [1]: 1.642
- Activity [4]: no

Structure (SMILES): NC(=O)c1ncn([C@@H]2O[C@H](CO)[C@@H](O)[C@H]2O)c1O [Mizoribine]
- Z Score [8]: 1.642

Structure (SMILES): CCOC(=O)[N-]c1cn(N2CCOCC2)n[o+]1 [Molsidomine]
- Z Score [8]: 1.567
- Z score [1]: 1.567
- Activity [4]: no

Structure (SMILES): CCOC(=O)C1=C(C)NC(=S)NC1c1cccc(O)c1 (stereo not drawn) [Monastrol]
- Z Score (168 h, 3 µM): −1.162
- Z score (168 h, 3 µM): −1.162

Structure (SMILES): O=c1c(O)c(-c2ccc(O)cc2O)oc2cc(O)cc(O)c12 [Morin]
- Z Score (168 h, 3 µM): −2.216
- Z score (168 h, 3 µM): −2.216
- Activity [4]: no

Structure (SMILES): CC(=O)Oc1cc(C(C)C)c(OCCN(C)C)cc1C [Moxisylyte hydrochloride]
- Z Score [3]: −1.018
- Z score [1]: −1.018
- Activity [4]: no

Structure (SMILES): COc1nc(C)nc(Cl)c1N=C1NCCN1 [Moxonidine hydrochloride]
- Z Score [6]: 0.2171
- Z score [1]: 0.217
- Activity [4]: no

Structure (SMILES): NCc1cc(=O)[nH]o1 [Muscimol hydrobromide]
- Z Score: 0.1863
- Z score [1]: 0.186
- Activity [7]: no

Structure (SMILES): O=c1c(O)c(-c2cc(O)c(O)c(O)c2)oc2cc(O)cc(O)c12 [Myricetin]
- Z Score: −0.9113
- Z score [1]: −0.911
- Activity [4]: no

Structure (SMILES): Nc1ccc(CCNc2ncnc3c2ncn3[C@@H]2O[C@H](CO)[C@@H](O)[C@H]2O)cc1 [N6-2-(4-Aminophenyl)ethyladenosine]
- Z Score (168 h, 3 µM): −1.323
- Z score (168 h, 3 µM): −1.323
- Activity [9]: no

Structure (SMILES): OC[C@H]1O[C@@H](n2cnc3c(NCCc4ccccc4)ncnc32)[C@H](O)[C@@H]1O [N6-2-Phenylethyladenosine]
- Z Score [6]: 0.5312
- Z score [1]: 0.531
- Activity [10]: no

Structure (SMILES): CCNC(=O)[C@H]1O[C@@H](n2cnc3c(NCc4ccccc4)ncnc32)[C@H](O)[C@@H]1O [N6-Benzyl-5′-N-ethylcarboxamidoadenosine]
- Z Score [3]: −0.7976
- Z score (LOPAC screen, neurosphere MTT proliferation, 3 μM, day 7): −0.798
- Activity [7]: no

Structure (SMILES): OC[C@H]1O[C@@H](n2cnc3c(NC4CCCCC4)ncnc32)[C@H](O)[C@@H]1O [N6-Cyclohexyladenosine]
- Z Score [5]: −2.883
- Z score [1]: −2.883
- Activity [2]: yes

Structure (SMILES): Cn1cnc2c(NC3CCCC3)ncnc21 [N6-Cyclopentyl-9-methyladenine]
- Z Score [5]: −2.112
- Z score [1]: −2.112
- Activity [10]: no

Structure (SMILES): OC[C@H]1O[C@@H](n2cnc3c(NC4CCCC4)ncnc32)[C@H](O)[C@@H]1O [N6-Cyclopentyladenosine]
- Z Score (168 h, 3 µM): −0.7839
- Z score (168 h, 3 µM): −0.784
- Activity [7]: no

Structure (SMILES): CNc1ncnc2c1ncn2[C@@H]1O[C@H](CO)[C@@H](O)[C@H]1O [N6-Methyladenosine]
- Z Score (168 h, 3 µM): 0.7424
- Z score (168 h, 3 µM): 0.742
- Activity [4]: no

Structure (SMILES): OC[C@H]1O[C@@H](n2cnc3c(Nc4ccccc4)ncnc32)[C@H](O)[C@@H]1O [N6-Phenyladenosine]
- Z Score: 0.7283
- Z score: 0.728
- Activity [10]: no

Structure (SMILES): CN(C)C(=O)N=NC(=O)N(C)C [N,N,N′,N′-Tetramethylazodicarboxamide]
- Z Score (168 h, 3 µM): −0.6393
- Z score (168 h, 3 µM): −0.639
- Activity [7]: no

Structure (SMILES): CCCCCCN(CCCCCC)C(=O)Cc1c(-c2ccc(F)cc2)[nH]c2ccccc12 [N,N-Dihexyl-2-(4-fluorophenyl)indole-3-acetamide]
- Z Score (168 h, 3 µM): 1.916
- Z score (168 h, 3 µM): 1.916
- Activity [7]: no

Structure (SMILES): COc1cccc(C(=O)NCCN2CCN(c3ccc(Cl)cc3)CC2)c1 [N-(2-[4-(4-Chlorophenyl)piperazin-1-yl]ethyl)-3-methoxybenzamide]
- Z Score [6]: 0.3828
- Z score [1]: 0.383
- Activity [2]: no

Structure (SMILES): NCC(=O)NCCC(c1ccccc1)c1ccccc1 [N-(3,3-Diphenylpropyl)glycinamide]
- Z Score [5]: −1.243
- Z score [1]: −1.243
- Activity [7]: no

Structure (SMILES): Nc1ccc(N2C(=O)c3ccccc3C2=O)c(Cl)c1 [N-(4-Amino-2-chlorophenyl)phthalimide]
- Z Score [3]: −0.6021
- Z score (primary LOPAC screen, 3 μM, MTT, neurosphere proliferation): −0.602
- Activity [9]: no

Structure (SMILES): Cl.NCCCCNS(=O)(=O)c1ccc2c(Cl)cccc2c1 [N-(4-Aminobutyl)-5-chloro-2-naphthalenesulfonamide hydrochloride]
- Z Score (168 h, 3 µM): −0.9229

Structure (SMILES): NCCCCNS(=O)(=O)c1ccc2c(Cl)cccc2c1 [N-(4-Aminobutyl)-5-chloro-2-naphthalenesulfonamide]
- Z score (168 h, 3 µM): −0.923
- Activity [10]: no
